Laboratory results as given in patent publication US11401286B2 (Tetra Discovery Partners, LLC, priority 2012, dated 2022).
Counter-ions that a name gives are not always drawn.

biological target: PDE4D7 (Homo sapiens (Human), UniProt Q08499); settings: read-out: PDE4D7 IC50; PDE4D7 without asterisk
Sequence (Q08499 other isoform, or with tags, fused parts or gaps): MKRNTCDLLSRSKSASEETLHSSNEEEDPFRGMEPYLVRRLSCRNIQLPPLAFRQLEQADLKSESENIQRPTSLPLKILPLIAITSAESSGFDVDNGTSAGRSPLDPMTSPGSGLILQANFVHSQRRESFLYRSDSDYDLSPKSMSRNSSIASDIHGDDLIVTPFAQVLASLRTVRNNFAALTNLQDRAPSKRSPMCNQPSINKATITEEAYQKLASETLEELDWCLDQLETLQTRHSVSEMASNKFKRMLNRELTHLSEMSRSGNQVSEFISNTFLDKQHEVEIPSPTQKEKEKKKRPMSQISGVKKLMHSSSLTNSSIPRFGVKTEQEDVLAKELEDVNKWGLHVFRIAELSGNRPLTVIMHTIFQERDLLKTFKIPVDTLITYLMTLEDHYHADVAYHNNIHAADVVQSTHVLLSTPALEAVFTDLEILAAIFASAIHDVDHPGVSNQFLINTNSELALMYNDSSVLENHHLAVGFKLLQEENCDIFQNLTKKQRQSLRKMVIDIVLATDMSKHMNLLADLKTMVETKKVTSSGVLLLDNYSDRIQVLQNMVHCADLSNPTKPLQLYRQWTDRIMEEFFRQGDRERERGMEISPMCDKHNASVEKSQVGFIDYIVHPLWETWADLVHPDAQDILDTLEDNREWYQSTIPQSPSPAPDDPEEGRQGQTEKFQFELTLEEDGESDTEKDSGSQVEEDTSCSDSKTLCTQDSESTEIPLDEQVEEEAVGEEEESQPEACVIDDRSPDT

| Structure (SMILES) | IC50 [nM] |
| --- | --- |
| OCCc1ccc(Nc2cc(-c3ccc(F)c(Cl)c3)nc3c2CCC3)cc1 [Example 151, 2-(4-((2-(3-Chloro-4-fluorophenyl)-6,7-dihydro-5H-cyclopenta[b]pyridin-4-yl)amino)phenyl)ethanol hydrochloride] | > 1000 |
| NC(=O)Cc1ccc(Nc2cc(-c3cc(F)cc(Cl)c3)nc3c2CCC3)cc1 [Example 152, 2-(4-((2-(3-Chloro-5-fluorophenyl)-6,7-dihydro-5H-cyclopenta[b]pyridin-4-yl)amino)phenyl)acetamide hydrochloride] | > 1000 |
| OCCc1ccc(Nc2cc(-c3cc(F)cc(Cl)c3)nc3c2CCC3)cc1 [Example 153, 2-(4-((2-(3-Chloro-5-fluorophenyl)-6,7-dihydro-5H-cyclopenta[b]pyridin-4-yl)amino)phenyl)ethanol hydrochloride] | > 1000 |
| OCCc1ccc(Nc2cc(-c3ccc(Cl)c(Cl)c3)nc3c2CCC3)cc1 [Example 154, 2-(4-((2-(3,4-Dichlorophenyl)-6,7-dihydro-5H-cyclopenta[b]pyridin-4-yl)amino)phenyl)ethanol hydrochloride] | > 1000 |
| NC(=O)Cc1ccc(Nc2cc(-c3cc(Cl)ccc3Cl)nc3c2CCC3)cc1 [Example 155, 2-(4-((2-(2,5-Dichlorophenyl)-6,7-dihydro-5H-cyclopenta[b]pyridin-4-yl)amino)phenyl)acetamide hydrochloride] | > 1000 |
| OCCc1ccc(Nc2cc(-c3cc(Cl)ccc3Cl)nc3c2CCC3)cc1 [Example 156, 2-(4-((2-(2,5-Dichlorophenyl)-6,7-dihydro-5H-cyclopenta[b]pyridin-4-yl)amino)phenyl)ethanol hydrochloride] | > 1000 |
| NC(=O)Cc1ccc(Nc2cc(-c3cc(Cl)cc(Cl)c3)nc3c2CCC3)cc1 [Example 157, 2-(4-((2-(3,5-Dichlorophenyl)-6,7-dihydro-5H-cyclopenta[b]pyridin-4-yl)amino)phenyl)acetamide hydrochloride] | > 1000 |
| OCCc1ccc(Nc2cc(-c3cc(Cl)cc(Cl)c3)nc3c2CCC3)cc1 [Example 158, 2-(4-((2-(3,5-Dichlorophenyl)-6,7-dihydro-5H-cyclopenta[b]pyridin-4-yl)amino)phenyl)ethanol hydrochloride] | > 1000 |
| Cc1cccc(-c2cc(Nc3ccc(CC(N)=O)cc3)c3c(n2)CCC3)c1 [Example 159, 2-(4-((2-(m-Tolyl)-6,7-dihydro-5H-cyclopenta[b]pyridin-4-yl)amino)phenyl)acetamide hydrochloride] | > 1000 |
| Cc1cccc(-c2cc(Nc3ccc(CCO)cc3)c3c(n2)CCC3)c1 [Example 160, 2-(4-((2-(m-Tolyl)-6,7-dihydro-5H-cyclopenta[b]pyridin-4-yl)amino)phenyl)ethanol hydrochloride] | > 1000 |
| O=C(O)Cc1ccc(Nc2cc(C3CCCC3)nc(C(F)(F)F)c2)cc1 [Example 161, 2-(4-((2-Cyclopentyl-6-(trifluoromethyl)pyridin-4-yl)amino)phenyl)acetic acid] | > 1000 |
| OCCc1ccc(Nc2nc(-c3cccc(Cl)c3)nc3c2CCC3)cc1 [Example 162, 2-(4-((2-(3-Chlorophenyl)-6,7-dihydro-5H-cyclopenta[d]pyrimidin-4-yl)amino)phenyl)ethanol] | < 1000 |
| OCCCc1ccc(Nc2nc(-c3cccc(Cl)c3)nc3c2CCC3)cc1 [Example 163, 3-(4-((2-(3-Chlorophenyl)-6,7-dihydro-5H-cyclopenta[d]pyrimidin-4-yl)amino)phenyl)propan-1-ol] | < 1000 |
| CC(=O)Cc1ccc(Nc2nc(-c3cccc(Cl)c3)nc3c2CCC3)cc1 [Example 164, 1-(4-((2-(3-Chlorophenyl)-6,7-dihydro-5H-cyclopenta[d]pyrimidin-4-yl)amino)phenyl)propan-2-one] | > 1000 |
| CC(O)Cc1ccc(Nc2nc(-c3cccc(Cl)c3)nc3c2CCC3)cc1 (stereo not shown) [Example 165, 1-(4-((2-(3-Chlorophenyl)-6,7-dihydro-5H-cyclopenta[d]pyrimidin-4-yl)amino)phenyl)propan-2-ol] | > 1000 |
| Clc1cccc(-c2nc3c(c(Nc4ccccc4)n2)CCC3)c1 [Example 166, 2-(3-Chlorophenyl)-N-phenyl-6,7-dihydro-5H-cyclopenta[d]pyrimidin-4-amine] | > 1000 |
| NC(=O)CCc1ccc(Nc2nc(-c3cccc(Cl)c3)nc3c2CCC3)cc1 [Example 167, 3-(4-((2-(3-Chlorophenyl)-6,7-dihydro-5H-cyclopenta[d]pyrimidin-4-yl)amino)phenyl)propanamide] | > 1000 |
| NC(=O)C(CO)Cc1ccc(Nc2nc(-c3cccc(Cl)c3)nc3c2CCC3)cc1 (stereo not shown) [Example 168, 2-(4-((2-(3-Chlorophenyl)-6,7-dihydro-5H-cyclopenta[d]pyrimidin-4-yl)amino)benzyl)-3-hydroxypropanamide] | > 1000 |
| CN(C)CCc1ccc(Nc2nc(-c3cccc(Cl)c3)nc3c2CCC3)cc1 [Example 169, 2-(3-Chlorophenyl)-N-(4-(2-(dimethylamino)ethyl)phenyl)-6,7-dihydro-5H-cyclopenta[d]pyrimidin-4-amine hydrochloride] | > 1000 |
| CCc1cc(Nc2ccc(CCN(C)C)cc2)nc(-c2cccc(Cl)c2)n1 [Example 170, 2-(3-Chlorophenyl)-N-(4-(2-(dimethylamino)ethyl)phenyl)-6-ethylpyrimidin-4-amine hydrochloride] | > 1000 |
| CCc1cc(Nc2ccc(CC(N)=O)cc2)nc(-c2cccc(Cl)c2)n1 [Example 171, 2-(4-((2-(3-Chlorophenyl)-6-ethylpyrimidin-4-yl)amino)phenyl)acetamide] | < 1000 |
| C[C@@H](O)Cc1ccc(Nc2nc(-c3cccc(Cl)c3)nc3c2CCC3)cc1 [Example 172, (R)-1-(4-((2-(3-Chlorophenyl)-6,7-dihydro-5H-cyclopenta[d]pyrimidin-4-yl)amino)phenyl)propan-2-ol] | > 1000 |
| C[C@H](O)Cc1ccc(Nc2nc(-c3cccc(Cl)c3)nc3c2CCC3)cc1 [Example 173, (S)-1-(4-((2-(3-Chlorophenyl)-6,7-dihydro-5H-cyclopenta[d]pyrimidin-4-yl)amino)phenyl)propan-2-ol] | > 1000 |
| C=Cc1ccc(Nc2nc(-c3cccc(Cl)c3)nc3c2CCC3)cc1 [Example 174, 2-(3-Chlorophenyl)-N-(4-vinylphenyl)-6,7-dihydro-5H-cyclopenta[d]pyrimidin-4-amine] | > 1000 |
| OCC(O)c1ccc(Nc2nc(-c3cccc(Cl)c3)nc3c2CCC3)cc1 (stereo not shown) [Example 175, 1-(4-((2-(3-Chlorophenyl)-6,7-dihydro-5H-cyclopenta[d]pyrimidin-4-yl)amino)phenyl)ethane-1,2-diol] | > 1000 |
| OC(Cc1ccc(Nc2nc(-c3cccc(Cl)c3)nc3c2CCC3)cc1)C(F)(F)F (stereo not shown) [Example 176, 3-(4-((2-(3-Chlorophenyl)-6,7-dihydro-5H-cyclopenta[d]pyrimidin-4-yl)amino)phenyl)-1,1,1-trifluoropropan-2-ol] | > 1000 |
| Cc1cc(Nc2nc(-c3cccc(Cl)c3)nc3c2CCC3)ccc1CC#N [Example 177, 2-(4-((2-(3-Chlorophenyl)-6,7-dihydro-5H-cyclopenta[d]pyrimidin-4-yl)amino)-2-methylphenyl)acetonitrile] | > 1000 |
| NC(=O)CCCNc1nc(-c2cccc(Cl)c2)nc2c1CCC2 [Example 178, 4-((2-(3-Chlorophenyl)-6,7-dihydro-5H-cyclopenta[d]pyrimidin-4-yl)amino)butanamide] | > 1000 |
